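Grown in 96-well plates, cells were treated for 48 hours with each compound at five concentrations. Insufficient inhibition: endpoint recorded as highest concentration tested. Here, GI50 denotes the concentration required for 50% inhibition of growth. TGI: total growth inhibition.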
Tests used:
Experiment in all cases: NCI anticancer screen, dose series, 48 h
786-0 renal = test system: 786-0 renal
CCRF-CEM leukemia = test system: CCRF-CEM leukemia
HCC-2998 colon = test system: HCC-2998 colon
LOX IMVI melanoma = test system: LOX IMVI melanoma
SK-MEL-5 melanoma = test system: SK-MEL-5 melanoma
SN12C renal = test system: SN12C renal
SNB-75 CNS = test system: SNB-75 CNS
SW-620 colon = test system: SW-620 colon
UACC-62 melanoma = test system: UACC-62 melanoma
NCI/ADR-RES ovarian = test system: NCI/ADR-RES ovarian
MDA-N = test system: MDA-N

| Structure (SMILES) | TGI (786-0 renal) | TGI (CCRF-CEM leukemia) | TGI (HCC-2998 colon) | TGI (LOX IMVI melanoma) | TGI (SK-MEL-5 melanoma) | TGI (SN12C renal) | TGI (SNB-75 CNS) | TGI (SW-620 colon) | TGI (UACC-62 melanoma) | TGI (NCI/ADR-RES ovarian) | TGI (MDA-N) | GI50 (CCRF-CEM leukemia) | GI50 (HCC-2998 colon) | GI50 (LOX IMVI melanoma) | GI50 (NCI/ADR-RES ovarian) | GI50 (SK-MEL-5 melanoma) | GI50 (SN12C renal) | GI50 (SW-620 colon) | GI50 (UACC-62 melanoma) |
| --- | --- | --- | --- | --- | --- | --- | --- | --- | --- | --- | --- | --- | --- | --- | --- | --- | --- | --- | --- |
| Cc1c[n+]2c3ccccc3c3ccccc3c2s1 | > 100 µM | 28.4 µM | 13.7 µM | 41.9 µM | 17.9 µM | 15.5 µM | 12.1 µM | > 75.5 µM | > 47.1 µM | – | – | – | – | – | – | – | – | – | – |
| COc1cc(C2c3cc4c(cc3[C@@H](Nc3cccc(CO)c3)C3COC(=O)[C@H]23)OCO4)cc(OC)c1O (some centres not stated) | – | 0.732 µM | 3.79 µM | 3.74 µM | 2.28 µM | 6.11 µM | > 24.7 µM | > 41.3 µM | 2.76 µM | 59.2 µM | – | – | – | – | – | – | – | – | – |
| O=P1(c2ccccc2)c2ccccc2-c2ccccc21 | > 100 µM | > 100 µM | > 100 µM | > 100 µM | > 100 µM | > 100 µM | > 100 µM | > 100 µM | > 100 µM | – | > 100 µM | – | – | – | – | – | – | – | – |
| COc1ccc2c3c(Nc4cccc(/C(C)=N\O)c4)[nH]c4ccccc4c-3c(N=O)c2c1 | – | > 100 µM | 22.4 µM | 67.7 µM | > 100 µM | > 100 µM | – | > 100 µM | > 100 µM | 96.9 µM | – | 13.6 µM | 10.6 µM | 29.1 µM | 21.2 µM | 29.8 µM | 30 µM | 32.1 µM | 43.9 µM |
| NS(=O)(=O)c1nnc(NC(=O)C23CC4CC(CC(C4)C2)C3)s1 | > 100 µM | – | > 100 µM | > 100 µM | > 100 µM | > 100 µM | – | > 100 µM | > 100 µM | > 100 µM | > 100 µM | – | – | – | – | – | – | – | – |
| COc1ccc(C2=NN(c3ccccc3)C[N+](c3ccc(C)cc3)=N2)cc1 | > 100 µM | 60.8 µM | > 100 µM | > 100 µM | > 10 µM | > 100 µM | – | 64.4 µM | – | – | – | – | – | – | – | – | – | – | – |
| COc1ccc(/C=C2/CSCC3=C2NC(=S)NC3c2ccc(OC)c(OC)c2OC)c(OC)c1OC (configuration not stated) | 40.7 µM | > 100 µM | 77.9 µM | 58.3 µM | 29.8 µM | 71.8 µM | > 100 µM | 91.6 µM | 45 µM | 32.2 µM | – | – | – | – | – | – | – | – | – |
| CSCC[C@@H]1C(=O)N(C)[C@H](C(C)(C)C)N1C(=O)c1ccccc1 | – | > 100 µM | > 100 µM | > 100 µM | > 100 µM | > 100 µM | > 100 µM | > 100 µM | > 100 µM | > 100 µM | – | – | – | – | – | – | – | – | – |
| CC(C)C(=O)N1Cc2cc(Cl)cc(Cl)c2OC(=O)c2ccccc21 | > 100 µM | 94.7 µM | 60.3 µM | 59 µM | 38.3 µM | > 100 µM | 96.5 µM | 94.9 µM | 42.2 µM | – | – | – | – | – | – | – | – | – | – |
| CCOC(=O)CC(c1ccccc1)C(C)(C(=O)OCC)C(=O)OCC (configuration not stated) | > 100 µM | > 100 µM | > 100 µM | > 100 µM | > 100 µM | > 100 µM | > 100 µM | > 100 µM | > 100 µM | > 100 µM | – | – | – | – | – | – | – | – | – |
| O=C(Nc1ccc(Cl)cc1C(F)(F)F)C(=O)C1CCCS1(=O)=O (configuration not stated) | > 100 µM | > 100 µM | > 100 µM | > 100 µM | > 100 µM | > 100 µM | > 100 µM | > 10 µM | > 100 µM | – | – | – | – | – | – | – | – | – | – |
| COC(=O)c1cc(C(=O)OC)c(CC(=O)C(=O)NC2C3CC4CC(C3)CC2C4)nc1CC(=O)C(=O)NC1C2CC3CC(C2)CC1C3 (configuration not stated) | > 100 µM | > 100 µM | > 100 µM | > 100 µM | > 100 µM | > 100 µM | > 100 µM | > 100 µM | > 100 µM | – | – | – | – | – | – | – | – | – | – |
| CCC(C)C(N)C(=O)NC(CC(N)=O)C(=O)NC(CC(C)C)C(=O)NC(CCCCN)C(=O)NC(C)C(=O)NC(CC(C)C)C(=O)NC(C)C(=O)NC(C)C(=O)NC(CC(C)C)C(=O)NC(C)C(=O)NC(CCCCN)C(=O)NC(CCCCN)C(=O)NC(C(=O)NC(CC(C)C)C(N)=O)C(C)CC (configuration not stated) | 13.7 µM | 18.6 µM | > 56.3 µM | 35.3 µM | 14.3 µM | 26.4 µM | 14 µM | 37.4 µM | 13.8 µM | – | – | – | – | – | – | – | – | – | – |
| C=CCNC(=S)N1CC(C)C(=O)Nc2cc(Cl)ccc21 (configuration not stated) | > 100 µM | – | – | – | > 100 µM | > 100 µM | > 100 µM | – | > 100 µM | – | – | – | – | – | – | – | – | – | – |
| Cc1cccc(Br)[n+]1[O-] | > 100 µM | > 100 µM | – | > 100 µM | > 100 µM | > 100 µM | > 100 µM | > 100 µM | > 100 µM | > 100 µM | – | – | – | – | – | – | – | – | – |
| NCCSc1cc(O)c2c(c1N)C(=O)c1ccccc1C2=O | > 100 µM | 43.1 µM | > 100 µM | – | 33.4 µM | > 100 µM | > 100 µM | > 100 µM | > 100 µM | – | – | – | – | – | – | – | – | – | – |
